For assay [1], the system named is HEK293T cells. Description: Mitochondrial iron level by fluorescent indicator RPA. It is filed as cell-based, human. From the text: (§1) Moreover, using siRNA knockdown (FIG. 13A), the present inventors observed that this Ent-mediated increase depended on ATP5A1 (FIG. 6E, F) in a similar manner as that in the assays for C. elegans (FIG. 5A, D). The present inventors also measured the mitochondrial iron level in cells by using the fluorescent mitochondrial iron indicator, RPA, to which iron binding quenches its fluorescence. […] The relatively smaller changes seen for cultured cells, compared to the difference in worms fed heat-killed food (FIG. 2), may potentially be due to the higher base iron level under the cell culturing condition.
Mitochondrial iron measurement in mammalian cells. The mitochondrial iron pools were determined as described (Mena et al., 2015). Briefly, cells were loaded for 20 min at 37 ° C. with 2 uM of the mitochondrial iron chelator rhodamine B-[(1,10-phenanthrolin-5-yl) aminocarbonyl]benzyl ester (RPA). After washing, the cells were imaged by fluorescence microscopy.

Assay [2] concerns mitochondria from HEK293T cells. Description: In vitro mitochondrial iron uptake assay, mitochondria from HEK293T cells. Type of assay: biochemical, human.
From the text: as §1
Mitochondrial iron uptake assays. For the in vitro mitochondrial iron uptake assay, the present inventors modified a published procedure for analysis of mammalian cells (Devireddy et al., 2010). […] The samples were incubated for 4 hours at room temperature, and the amount of 55Fe in lysed mitochondria was determined by liquid scintillation.

Assay [3] addresses T1, ATP5A1 (Homo sapiens, UniProt P25705).
T1 construct: His
Description: Biotin-Ent binding to ATP5A1 (pulldown from HEK293T cells and in vitro binding assay). The following applies: excess, free Ent. From the text: Sequence alignment indicates 78% identity between the ATP synthase a-subunits from C. elegans (ATP-1, Wormbase; SEQ ID NO. 7) and humans (ATP5A1, NCBI; SEQ ID NO. 8) (FIG. 11D). […] To test if this Ent-ATP-1 function is conserved in mammals, the present inventors repeated the prior described biotin-Ent pulldown assay (FIG. 3A) using total protein extracts from human HEK293T cells cultured +/− Biotin-Ent.
(§2) In vitro binding assay. (a) Ent-biotin pull-down of total proteins: Ent-biotin and streptavidin beads were used to pull down interacting proteins from worm total protein extracts (same method as that in initial screen for Ent-binding proteins). Western blots were performed to detect ATP-1 (Thermo Fisher 43-9800). […] The assay was then quenched with a standard 5×SDS-PAGE_loading buffer (reducing). Proteins were separated by SDS-PAGE and transferred to_nitrocellulose membranes. The membranes were blocked for 1 h with 5% BSA in Trisbuffered saline (TBS) with 0.1% Tween 20 (TBST) at room temperature, followed by incubation for 1 h with horseradish peroxidase streptavidin (Cell Signaling_Technology,3999S) in TBST. After four washes with changes every 15 min in TBST, the_biotinylated proteins were visualized by enhanced chemiluminescence (GE Healthcare,_RPN2232). […] After IP, the amount of 55Fe was determined by liquid scintillation.

Assay [4] concerns succinate dehydrogenase. Description: Succinate dehydrogenase enzymatic activity in worms +/- Ent. The following applies: worms fed Ent-deficient food. It is filed as in vivo, C. elegans. The procedure: Enzymatic activity. Succinate Dehydrogenase (MAK197; Sigma) and aconitase (MAK051; Sigma) enzymatic activity were measured using the kits according to the manufacturer's protocol. […] After 48 hours culturing, worms were lysed in ice-cold conditions using the lysis buffer provided in the kit, supplemented with […]. Equal amounts of protein were used for the enzymatic activity assay.

For assay [5], the target named is T2, ATP-1 (Caenorhabditis elegans, UniProt Q9XXK1).
T2 construct: His; made in house; host or cells: E. coli (given only for the three ATP-1 segments)
T2 sequence (Q9XXK1 whole entry): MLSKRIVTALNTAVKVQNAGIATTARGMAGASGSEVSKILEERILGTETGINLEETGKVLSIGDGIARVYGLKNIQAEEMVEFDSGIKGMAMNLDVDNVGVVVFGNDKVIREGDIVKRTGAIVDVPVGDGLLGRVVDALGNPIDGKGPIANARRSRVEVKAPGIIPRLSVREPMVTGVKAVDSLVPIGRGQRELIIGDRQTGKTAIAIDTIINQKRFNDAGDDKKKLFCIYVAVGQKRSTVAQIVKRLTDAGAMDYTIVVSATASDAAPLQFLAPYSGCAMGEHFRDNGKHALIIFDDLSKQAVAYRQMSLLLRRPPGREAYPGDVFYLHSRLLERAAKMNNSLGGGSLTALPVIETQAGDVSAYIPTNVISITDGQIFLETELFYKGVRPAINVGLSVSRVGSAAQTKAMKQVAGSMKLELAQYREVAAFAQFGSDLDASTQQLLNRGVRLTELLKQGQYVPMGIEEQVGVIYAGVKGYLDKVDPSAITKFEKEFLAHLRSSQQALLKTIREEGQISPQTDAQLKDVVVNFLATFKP
Description: Biotin-Ent binding to ATP-1 (in vivo pulldown and in vitro binding assay). Also noted: species or system C. elegans. The conditions noted are these: excess non-biotin labeled Ent. The procedure:
First, in an in vivo assay, worms were fed bacteria +/− Biotin-Ent and total protein extracts were isolated, followed by streptavidin-bead purification and SDS-PAGE. […] Just as the iron-free Biotin-Ent, iron-bound Biotin-Ent also bound the ATP-1 protein (FIG. 10B, C).
In vivo binding assay: Worms were allowed to grow with Ent-biotin (5 ug/ml) dietary supplementation, followed by streptavidin-bead IP. Western blot was performed to detect ATP-1, using an antibody against the mammalian ATP synthase a-subunit (Thermo Fisher 43-9800).
as §2, with “TBST.” for “TBST. After four washes with changes every 15 min in TBST, the_biotinylated proteins were visualized by enhanced chemiluminescence (GE Healthcare,_RPN2232).”

T1 sequence (P25705 44-553): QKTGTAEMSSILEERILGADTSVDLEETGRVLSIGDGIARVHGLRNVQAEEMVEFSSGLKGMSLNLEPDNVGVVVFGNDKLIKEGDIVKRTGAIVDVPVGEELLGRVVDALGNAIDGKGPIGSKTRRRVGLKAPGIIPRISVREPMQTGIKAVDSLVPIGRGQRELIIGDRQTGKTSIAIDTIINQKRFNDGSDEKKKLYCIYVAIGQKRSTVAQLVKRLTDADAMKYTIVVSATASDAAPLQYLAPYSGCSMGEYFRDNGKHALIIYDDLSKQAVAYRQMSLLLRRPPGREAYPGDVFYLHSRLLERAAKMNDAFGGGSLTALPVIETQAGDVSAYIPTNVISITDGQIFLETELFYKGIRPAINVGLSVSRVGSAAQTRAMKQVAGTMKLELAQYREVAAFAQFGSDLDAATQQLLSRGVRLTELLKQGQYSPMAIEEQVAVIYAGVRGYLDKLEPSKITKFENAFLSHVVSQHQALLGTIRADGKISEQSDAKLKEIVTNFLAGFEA

Consider `O=C(N[C@H]1COC(=O)[C@@H](NC(=O)c2cccc(O)c2O)COC(=O)[C@@H](NC(=O)c2cccc(O)c2O)COC1=O)c1cccc(O)c1O` [Ent, enterobactin], for which the “mitochondrial iron level (RPA)” value in assay [1] was “increased the mitochondrial iron level”. Also, in assay [1] (cells treated with ATP5A1 siRNA), the “iron-boosting effect of Ent (RPA)” value is recorded as “not seen”. In assay [2], the “iron level in mitochondria” value is “prominently increased”. In assay [3], the “competition of biotin-Ent binding to ATP5A1” value is on record as “effectively competed away”. The “activity of succinate dehydrogenase” value in assay [4] was “significantly increased”. Besides, the “competition of Biotin-Ent binding to ATP-1-His” value in assay [5] is listed as “outcompeted”.

The record behind these values is patent publication US20210187014A1 (The Regents of the University of Colorado, a body corporate, priority 2018, published 2021).
